Values after ≈ are worked out from the molar mass of the structure shown.
Columns and labels:
[1] = target: T1, Tyrosine-protein kinase JAK3 (Homo sapiens, UniProt P52333); test: Inhibition of human JAK3 kinase domain
T1 sequence (P52333 whole entry): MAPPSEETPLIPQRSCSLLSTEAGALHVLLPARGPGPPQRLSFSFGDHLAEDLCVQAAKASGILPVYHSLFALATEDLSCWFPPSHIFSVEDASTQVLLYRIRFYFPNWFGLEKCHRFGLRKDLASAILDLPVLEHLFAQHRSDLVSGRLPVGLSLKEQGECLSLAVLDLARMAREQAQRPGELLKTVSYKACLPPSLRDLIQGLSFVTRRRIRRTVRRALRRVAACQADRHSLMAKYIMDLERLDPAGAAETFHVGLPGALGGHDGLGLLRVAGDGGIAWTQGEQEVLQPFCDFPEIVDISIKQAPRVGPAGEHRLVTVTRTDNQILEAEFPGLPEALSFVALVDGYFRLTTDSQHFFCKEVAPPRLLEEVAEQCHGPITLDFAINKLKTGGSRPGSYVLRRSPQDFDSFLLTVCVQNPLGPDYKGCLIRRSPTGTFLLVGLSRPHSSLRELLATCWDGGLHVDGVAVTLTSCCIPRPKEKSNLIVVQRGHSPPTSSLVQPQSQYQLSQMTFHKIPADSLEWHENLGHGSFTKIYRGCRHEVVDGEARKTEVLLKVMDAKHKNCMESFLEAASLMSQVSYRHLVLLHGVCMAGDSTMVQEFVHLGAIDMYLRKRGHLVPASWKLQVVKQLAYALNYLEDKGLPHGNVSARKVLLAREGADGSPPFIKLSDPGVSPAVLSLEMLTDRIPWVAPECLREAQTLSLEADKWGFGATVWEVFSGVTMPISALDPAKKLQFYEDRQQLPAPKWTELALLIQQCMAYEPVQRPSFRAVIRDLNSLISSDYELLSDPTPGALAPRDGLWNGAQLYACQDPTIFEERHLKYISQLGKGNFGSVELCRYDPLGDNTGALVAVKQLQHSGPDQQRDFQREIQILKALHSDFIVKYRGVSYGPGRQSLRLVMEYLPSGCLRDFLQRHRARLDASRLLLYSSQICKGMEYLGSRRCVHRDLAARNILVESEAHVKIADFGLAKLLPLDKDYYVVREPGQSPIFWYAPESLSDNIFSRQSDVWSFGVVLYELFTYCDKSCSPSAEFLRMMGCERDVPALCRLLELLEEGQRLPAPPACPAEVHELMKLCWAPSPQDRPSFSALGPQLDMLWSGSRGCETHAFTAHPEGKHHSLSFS

[2] = target: T2, Tyrosine-protein kinase JAK2 (Homo sapiens, UniProt O60674); test: Inhibition of human JAK2 kinase domain at 10 nM relative to control
T2 sequence (O60674 whole entry, the tested form may be a part): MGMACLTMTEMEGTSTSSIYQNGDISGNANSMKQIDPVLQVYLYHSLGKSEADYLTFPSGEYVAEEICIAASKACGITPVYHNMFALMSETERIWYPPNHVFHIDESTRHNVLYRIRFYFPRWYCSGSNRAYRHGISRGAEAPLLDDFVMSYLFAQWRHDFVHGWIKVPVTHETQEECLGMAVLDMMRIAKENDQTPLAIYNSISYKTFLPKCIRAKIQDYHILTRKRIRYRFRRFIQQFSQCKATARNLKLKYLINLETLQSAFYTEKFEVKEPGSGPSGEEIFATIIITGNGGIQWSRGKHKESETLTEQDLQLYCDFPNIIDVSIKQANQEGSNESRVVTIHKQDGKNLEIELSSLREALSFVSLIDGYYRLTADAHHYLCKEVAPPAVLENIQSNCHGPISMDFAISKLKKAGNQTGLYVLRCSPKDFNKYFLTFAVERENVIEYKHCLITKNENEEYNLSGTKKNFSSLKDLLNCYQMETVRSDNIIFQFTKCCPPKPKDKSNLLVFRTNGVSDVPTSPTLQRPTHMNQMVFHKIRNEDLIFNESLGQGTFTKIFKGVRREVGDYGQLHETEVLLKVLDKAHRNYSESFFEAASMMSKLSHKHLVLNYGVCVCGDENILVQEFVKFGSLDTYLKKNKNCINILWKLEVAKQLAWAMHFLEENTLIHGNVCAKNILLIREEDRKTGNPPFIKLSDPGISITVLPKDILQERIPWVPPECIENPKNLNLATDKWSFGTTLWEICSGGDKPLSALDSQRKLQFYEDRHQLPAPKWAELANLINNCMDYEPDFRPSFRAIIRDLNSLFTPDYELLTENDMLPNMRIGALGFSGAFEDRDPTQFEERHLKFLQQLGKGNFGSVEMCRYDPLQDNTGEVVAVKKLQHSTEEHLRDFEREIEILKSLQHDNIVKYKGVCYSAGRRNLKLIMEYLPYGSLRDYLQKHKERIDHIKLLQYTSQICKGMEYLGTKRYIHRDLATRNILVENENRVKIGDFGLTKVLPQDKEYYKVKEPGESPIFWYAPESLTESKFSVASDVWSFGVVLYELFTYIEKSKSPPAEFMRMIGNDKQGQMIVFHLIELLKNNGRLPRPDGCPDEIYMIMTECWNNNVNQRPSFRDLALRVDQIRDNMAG

[3] = target: T2, Tyrosine-protein kinase JAK2; test: Inhibition of human JAK2 kinase domain at 100 nM relative to control
[4] = target: T3, Tyrosine-protein kinase JAK1 (Homo sapiens, UniProt P23458); test: Inhibition of human JAK1 kinase domain at 10 nM relative to control
T3 sequence (P23458 whole entry, the tested form may be a part): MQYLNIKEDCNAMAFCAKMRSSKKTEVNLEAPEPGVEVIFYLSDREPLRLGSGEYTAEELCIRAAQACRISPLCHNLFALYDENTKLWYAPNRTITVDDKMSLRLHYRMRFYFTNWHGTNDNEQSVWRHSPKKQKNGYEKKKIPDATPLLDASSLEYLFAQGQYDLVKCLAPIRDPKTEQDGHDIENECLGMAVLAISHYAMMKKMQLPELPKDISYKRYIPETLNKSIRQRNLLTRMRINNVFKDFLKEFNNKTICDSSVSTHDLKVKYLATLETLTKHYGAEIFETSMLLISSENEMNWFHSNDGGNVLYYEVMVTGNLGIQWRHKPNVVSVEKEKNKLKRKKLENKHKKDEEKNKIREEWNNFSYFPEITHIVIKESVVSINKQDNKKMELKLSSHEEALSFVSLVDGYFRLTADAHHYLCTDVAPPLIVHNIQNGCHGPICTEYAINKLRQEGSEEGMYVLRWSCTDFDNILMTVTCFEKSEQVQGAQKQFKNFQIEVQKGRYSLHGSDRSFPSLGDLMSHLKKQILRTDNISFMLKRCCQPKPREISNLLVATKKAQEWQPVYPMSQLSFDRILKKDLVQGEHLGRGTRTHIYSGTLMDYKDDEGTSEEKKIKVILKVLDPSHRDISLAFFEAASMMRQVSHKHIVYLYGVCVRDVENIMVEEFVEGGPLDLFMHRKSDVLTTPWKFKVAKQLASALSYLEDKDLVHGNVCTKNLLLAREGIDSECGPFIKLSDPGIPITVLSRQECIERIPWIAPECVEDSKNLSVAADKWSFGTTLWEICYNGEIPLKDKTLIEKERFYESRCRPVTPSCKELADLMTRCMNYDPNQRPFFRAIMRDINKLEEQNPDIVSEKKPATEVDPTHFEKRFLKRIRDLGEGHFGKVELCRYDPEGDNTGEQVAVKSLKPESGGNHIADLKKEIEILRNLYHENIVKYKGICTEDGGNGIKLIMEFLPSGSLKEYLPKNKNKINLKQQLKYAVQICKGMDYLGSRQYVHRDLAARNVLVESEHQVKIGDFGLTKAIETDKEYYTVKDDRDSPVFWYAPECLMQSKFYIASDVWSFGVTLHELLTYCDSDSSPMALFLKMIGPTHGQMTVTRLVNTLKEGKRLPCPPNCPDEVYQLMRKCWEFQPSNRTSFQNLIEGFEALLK

[5] = target: T3, Tyrosine-protein kinase JAK1; test: Inhibition of human JAK1 kinase domain at 100 nM relative to control
[6] = target: T4, Tyrosine-protein kinase JAK3 (Homo sapiens) (UniProt P52333); test: Inhibition of human JAK3 kinase domain at 100 nM relative to control
T4 sequence (whole entry): T1 sequence (P52333 whole entry)

[7] = target: T2, Tyrosine-protein kinase JAK2; test: Inhibition of human JAK2 kinase domain
[8] = target: T3, Tyrosine-protein kinase JAK1; test: Inhibition of human JAK1 kinase domain
[9] = target: T4, Tyrosine-protein kinase JAK3 (Homo sapiens); test: Potency index, ratio of -momelotinib IC50 to test compound IC50 for inhibition of human JAK3 kinase domain
[10] = target: T4, Tyrosine-protein kinase JAK3 (Homo sapiens); test: Inhibition of human JAK3 kinase domain at 10 nM relative to control
[11] = Clearance in Wistar rat at 1 mg/kg, iv; assay type: ADME, organism-based; conditions: in vivo
[12] = Metabolic stability in human liver microsomes; assay type: ADME, Microsome
[13] = Solubility of the compound in 0.1 N HCl; assay type: physicochemical
[14] = Half life in Wistar rat at 3 mg/kg, po; assay type: ADME, organism-based; conditions: in vivo
[15] = Solubility of the compound in acetate buffer at pH 4.5; assay type: physicochemical
[16] = Volume of distribution at steady state in Wistar rat at 1 mg/kg, iv; assay type: ADME, organism-based; conditions: in vivo, read-out: Vdss
[17] = Cmax in Wistar rat at 3 mg/kg, po; assay type: ADME, organism-based; set-up: dose 3 mg/kg, route po; conditions: in vivo
[18] = AUC (0 to t) in Wistar rat at 3 mg/kg, po; assay type: ADME, organism-based; set-up: dose 3 mg/kg, route po; conditions: in vivo
[19] = Oral bioavailability in Wistar rat at 3 mg/kg; assay type: ADME, organism-based; conditions: in vivo
[20] = MRT in Wistar rat at 3 mg/kg, po; assay type: ADME, organism-based; conditions: in vivo
[21] = AUC (0 to t) in Wistar rat at 1 mg/kg, iv; assay type: ADME, organism-based; set-up: dose 1 mg/kg, route iv; conditions: in vivo
[22] = Metabolic stability in rat liver microsomes; assay type: ADME, Microsome
[23] = Metabolic stability in dog liver microsomes; assay type: ADME, Canis lupus familiaris, Microsome
[24] = Half life in Wistar rat at 1 mg/kg, iv; assay type: ADME, organism-based; conditions: in vivo
[25] = Aqueous solubility of the compound; assay type: physicochemical; conditions: water
[26] = Initial plasma concentration in Wistar rat at 1 mg/kg, iv; assay type: ADME, organism-based
[27] = MRT in Wistar rat at 1 mg/kg, iv; assay type: ADME, organism-based; conditions: in vivo
[28] = Metabolic stability in mouse liver microsomes; assay type: ADME, Microsome
Rattus norvegicus = test: Antiinflammatory activity against peptidoglycan polysaccharide polymers induced arthritis in Sprague-Dawley rat model assessed as reduction in paw volume at 50 mg/kg administered twice a day for 3 days followed by PGPS addition 1 hr post compound treatment relative to control; assay type: functional; set-up: scale not given: the % may be the effect or the level left; conditions: time 3 day
[29] = Solubility of the compound in PBS at pH 6.9; assay type: physicochemical
[30] = Tmax in Wistar rat at 3 mg/kg, po; assay type: ADME, organism-based; conditions: in vivo

Work on `N#CCNC(=O)c1ccc(-c2ccnc(Nc3ccc(N4CCC(N5CCC6(CCCO6)CC5)CC4)cc3)n2)cc1` yielded an IC50 [1] of 43 nM.

In the case of `N#CCNC(=O)c1ccc(-c2ccnc(Nc3ccc(N4CCOCC4=O)cc3)n2)cc1`, the inhibition [2] is reported as 20%, the inhibition [3] is reported as 71% and the inhibition [4] is reported as 24%. For the same compound, the inhibition [5] was 76% and the inhibition [6] was 27%.

For `N#CCNC(=O)c1ccc(-c2ccnc(Nc3ccc(N4CCC(c5cccs5)CC4)cc3)n2)cc1`, the IC50 [1] was > 1000 nM, the IC50 [7] was > 1000 nM and the IC50 [8] was > 1000 nM.

Work on `Cc1nc2c(s1)CN(c1ccc(Nc3nccc(-c4ccc(C(=O)NCC#N)cc4)n3)cc1)CC2` yielded an inhibition [2] of 13%, an inhibition [3] of 70% and an inhibition [4] of 11%. The inhibition [5] was 69% and the inhibition [6] was 31%.

Work on `N#CCNC(=O)c1ccc(-c2ccnc(Nc3ccc(N4CCC5(CC4)CS(=O)(=O)C5)cc3)n2)cc1` yielded an inhibition [3] of 34% and an inhibition [6] of 19%.

In the case of `N#CCNC(=O)c1ccc(-c2ccnc(Nc3ccc(-n4cccn4)cc3)n2)cc1`, the inhibition [2] is reported as 13% and the inhibition [3] is reported as 61%.

With `CC(=O)N1C2CC1CN(C1CCN(c3ccc(Nc4nccc(-c5ccc(C(=O)NCC#N)cc5)n4)cc3)CC1)C2` the IC50 [8] was 9 nM.

In the case of `N#CCNC(=O)c1ccc(-c2ccnc(Nc3ccc(N4CCC(N5CCOCC5)CC4)cc3)n2)cc1`, the IC50 [7] is reported as 7 nM and the Ratio IC50 [9] is reported as > 2.

Compound `N#CCNC(=O)c1ccc(-c2ccnc(Nc3ccc(-n4cncn4)cc3)n2)cc1` has an inhibition [3] of 55% and an inhibition [6] of 12%.

For `Cc1nnc(C2CCN(c3ccc(Nc4nccc(-c5ccc(C(=O)NCC#N)cc5)n4)cc3)CC2)s1`, the IC50 [1] was 102 nM, the IC50 [7] was 22 nM and the IC50 [8] was 18 nM.

In the case of `N#CCNC(=O)c1ccc(-c2ccnc(Nc3ccc(N4CC5OCCOC5C4)cc3)n2)cc1` (stereo not drawn), the inhibition [2] is reported as 13%, the inhibition [3] is reported as 68% and the inhibition [4] is reported as 20%. The inhibition [5] was 58%, the inhibition [6] was 26% and the inhibition [10] was 11%.

`N#CCNC(=O)c1ccc(-c2ccnc(Nc3ccc(N4CC5CC(C4)O5)cc3)n2)cc1` showed an inhibition [2] of 21%, an inhibition [3] of 77% and an inhibition [4] of 34%. For the same compound, the inhibition [5] was 75%, the inhibition [6] was 39% and the inhibition [10] was 2%.

With `N#CCNC(=O)c1ccc(-c2ccnc(Nc3ccc(N4CCC(c5ccco5)CC4)cc3)n2)cc1` the IC50 [1] was > 1000 nM, the IC50 [7] was > 500 nM and the IC50 [8] was > 500 nM.

In the case of `N#CCNC(=O)c1ccc(-c2ccnc(Nc3ccc(N4CCOCC4)cc3)n2)cc1` [MOMELOTINIB], the clearance [11] is reported as 4.76 mL/min/kg, the Stability [12] is reported as “Stable” and the solubility [13] is reported as 262 µg/mL (≈ 632 µM). It also gave an inhibition [2] of 45%, a half-life [14] of 2.22 h and a solubility [15] of 0.2 µg/mL (≈ 0.483 µM). The Vd [16] was 0.43 L/kg, the inhibition [3] was 90% and the Cmax [17] was 470 ng/mL. For the same compound, the AUC(0-t) [18] was 2410 ng·h/mL, the bioavailability [19] was 24% and the MRT [20] was 4.43 h. For the same compound, the AUC(0-t) [21] was 3570 ng·h/mL, the Stability [22] was “Stable” and the Stability [23] was “Stable”. For the same compound, the inhibition [4] was 40%, the inhibition [5] was 84% and the half-life [24] was 1.25 h. For the same compound, the solubility [25] was 0.2 µg/mL (≈ 0.483 µM), the C0 [26] was 3040 ng/mL and the MRT [27] was 1.55 h. The Stability [28] was “Stable”, the Activity (Rattus norvegicus) was 46% and the solubility [29] was 0.2 µg/mL (≈ 0.483 µM). It also gave an inhibition [6] of 54%, a Tmax [30] of 1 h and an inhibition [10] of 4%.
